According to patent US20230064324A1, “NEW USES FOR STEVIOL” (SUNTORY HOLDINGS LIMITED, priority 2019, published 2023):

Assays:
[1] = test system: neuronal cells (induced from PC12 cells); experiment: Cytotoxicity of steviol to neuronal cells (differentiated PC12, WST-8); assay type: cell-based, Rat; settings: for Relative viable cell count (%): 2 days, differentiated PC12, Control=100%
Description: PC12 cells (Cat. No. 88022401, ECACC) were precultured in a collagen IV-coated flask using the growth medium. […] A vehicle control composed of a test medium supplemented with 0.1% DMSO (final concentration) was used as a negative control.

[2] = test system: endoplasmic reticulum stress markers CHOP and GRP78; experiment: Endoplasmic reticulum stress-suppressing effect in each type of cell (markers CHOP and GRP78), overall statement; assay type: cell-based; settings: neuronal cells, adipocytes, hepatocytes, pancreatic cells; tunicamycin-induced; CHOP and GRP78 as index
Experimental: Steviol was evaluated for its influence on endoplasmic reticulum stress in each type of cell by using endoplasmic reticulum stress markers CHOP and GRP78 as an index. The test cells used were neuronal cells (induced from PC12 cells), adipocytes (normal human subcutaneous preadipocytes, Cat. No. PT-5020, Lonza Group AG), hepatocytes (HepG2, Cat. No. JCRB1054, JCRB) and pancreatic cells (βTC6, ATCC® CRL-11506).
4PA (P21005, Sigma-Aldrich Co., LLC) was dissolved in a medium and then added at a predetermined concentration to a differentiation medium or a growth medium.
After the completion of endoplasmic reticulum stress induction treatment, the expression levels of CHOP and GRP78 were measured to evaluate the degree of endoplasmic reticulum stress. First, FasteLane lysate (RNA) was prepared for RNA extraction using FastLane Cell Probe kit (Cat. No. 216413, Qiagen N.V.). After removal of the medium, each well was washed by the addition of 125 μL of Buffer FCW and its immediate removal. Then, 50 μL of Cell processing mix was added to each well, followed by incubation at room temperature for 5 minutes to prepare FasteLane lysate. […]
RT-PCR reaction was performed under conditions of 50° C. for 30 minutes, 95° C. for 15 minutes, and (94° C. for 15 seconds and 60° C. for 60 seconds)×40 cycles. […] A relative expression level was calculated by the ΔΔCt method. […]

PC12 cells (clone HS) [3] = experiment: Cytotoxicity of steviol to PC12 cells (WST-8 viable cell count); assay type: cell-based, Rat; settings: for Relative viable cell count (%): 3 days, Control=100%
Experimental: PC12 cells (clone HS, Cat. No. JCRB0266, JCRB) were precultured for 3 days in a collagen IV-coated flask (T-75, Corning Inc., Cat. No. 354523) using a growth medium (DMEM medium (low glucose, Cat. No. 08456-65, Nacalai Tesque, Inc.) supplemented with 10% FBS (Cat. No. 172012, Sigma-Aldrich Co., LLC), 10% horse serum (Cat. No. 16050-122, Thermo Fisher Scientific Inc.), and 1% penicillin-streptomycin) in a CO2 incubator (37° C., 5% CO2; the same holds true for the description below). […] A vehicle control composed of a test medium supplemented with 0.1% DMSO (final concentration) was used as a negative control.

[4] = test system: neuronal cells (induced from PC12 cells); experiment: Cell-protecting effect against tunicamycin-induced endoplasmic reticulum stress (WST-8); settings: 1 μM tunicamycin
Experimental: PC12 cells were precultured using the growth medium in a same manner as Example 3. The cells were detached using 0.25% trypsin-EDTA, seeded at 5,000 cells/100 μL/well to a collagen IV-coated 96-well plate (Cat. No. 354429, Corning) using the growth medium, and cultured overnight in a CO2 incubator. On the next day, the medium was replaced with 100 μL of the differentiation medium, and the cells were cultured for 2 days in a CO2 incubator to induce their differentiation into neuronal cells. […] IGF-1 (Cat. No. SRP4121, Sigma-Aldrich Co., LLC) was dissolved at 100 μg/mL in Nuclease Free Water and then added at 100 ng/mL to the differentiation medium.
After the completion of endoplasmic reticulum stress induction treatment, viable cell count measurement was performed by the WST-8 method to evaluate damage on the cells by endoplasmic reticulum stress. Specifically, the medium of each well after culture was replaced with 200 μL of a differentiation medium supplemented with a 1/10 amount of viable cell count measurement reagent SF, and the cells were incubated in a CO2 incubator. 30 minutes later and 90 minutes later, absorbance (450 nm, reference wavelength: 630 nm) was measured using a plate reader (VARIOSKAN FLASH, Thermo Fisher Scientific Inc.), and absorbance difference per 60 minutes was regarded as a relative viable cell count.

PC12 cells (clone HS) [5] = experiment: Neurite elongation-promoting effect on PC12 cells (neurite length per cell, Operetta CLS); assay type: cell-based, Rat; settings: for Relative neurite length (%): 3 days, negative control=100%
Experimental: PC12 cells (clone HS) were precultured using a growth medium in the same manner as in Example 1. […] The cells thus cultured were subjected to cell membrane staining using Cell Membrane Stain attached to Neurite Outgrowth Staining Kit (Thermo Fisher Scientific Inc.) and nuclear staining using Hoechst 33342 (Cat. No. H3570). Specifically, the medium was replaced with 100 μL of a fixative and staining solution (prepared by adding a 1/1000 amount each of Cell Membrane Stain (1000×) and Hoechst 33342 and a 1/25 amount of a formaldehyde solution (Cat. No. 061-00416, FUJIFILM Wako Pure Chemical Corp.) to DPBS (++) (Cat. No. 14040133, Thermo Fisher Scientific Inc.)), followed by incubation for 20 minutes in a CO2 incubator (5% CO2, 37° C., humid). […] Photographing and quantitative analysis were carried out using Operetta CLS (Perkin Elmer, Inc.), and a neurite length per cell was calculated. Nine fields of view at the center of each well were photographed using a 10× objective lens. A test medium supplemented with 50 ng/mL NGF was used as a positive control, and a vehicle control composed of a differentiation medium supplemented with 0.1% DMSO (final concentration) was used as a negative control.

CHOP = CHOP expression in adipocytes under endoplasmic reticulum stress (RT-PCR); assay type: cell-based, Human; settings: pretreatment 24 h, tunicamycin 0.65 μM 24 h
Experimental: (§1) Adipocytes were prepared as follows. Normal human subcutaneous preadipocytes were reconstituted in a T75 flask using a growth medium (PBM-2 medium, Cat. No. PT-8002, Lonza, supplemented with 10% FBS, 2 mM L-glutamine, 50 μg/mL gentamycin, and 37 ng/mL amphotericin-B), and precultured for 3 days in a CO2 incubator (37° C., 5% CO2; the same holds true for the description below).
(§2) The lysate was preserved at −80° C. until use.
(§3) The internal standard gene used was GAPDH gene.

GRP78 [6] = experiment: GRP78 expression in neuronal cells under endoplasmic reticulum stress (RT-PCR); assay type: cell-based, Rat; settings: pretreatment 24 h, tunicamycin 1.0 μM 24 h
Experimental: Neuronal cells were prepared as follows. PC12 cells were reconstituted by seeding at 2×10^6 cells/flask to a collagen IV-coated flask, and precultured for 3 days in the growth medium in a CO2 incubator.
as §2, §3

GRP78 [7] = experiment: GRP78 expression in adipocytes under endoplasmic reticulum stress (RT-PCR); assay type: cell-based, Human; settings: pretreatment 24 h, tunicamycin 0.65 μM 24 h
Experimental: as §1, §2, §3

With C=C1C[C@@]23CC[C@H]4[C@@](C)(CCC[C@@]4(C)C(=O)O)[C@@H]2CC[C@]1(O)C3 [Steviol] the “cytotoxicity to neuronal cells (in words)” value ([1]; 100 μg/mL steviol) was “no particular cytotoxicity to be noted was found”, the “Relative viable cell count (%)” value ([1]; steviol 0.01 μg/mL) was 97.7% and the “Relative viable cell count (%)” value ([1]; steviol 0.1 μg/mL) was 104.4%. The “Relative viable cell count (%)” value ([1]; steviol 1 μg/mL) was 93.6%, the “Relative viable cell count (%)” value ([1]; steviol 10 μg/mL) was 91.4% and the “Relative viable cell count (%)” value ([1]; steviol 100 μg/mL) was 95.1%. For the same compound, the “endoplasmic reticulum stress (in words)” value [2] was “suppressed endoplasmic reticulum stress in each type of cell in a concentration-dependent manner”, the “cytotoxicity to PC12 cells (in words)” value (PC12 cells (clone HS) [3]; 100 μg/mL steviol) was “no particular cytotoxicity to be noted was found” and the “Relative viable cell count (%)” value (PC12 cells (clone HS) [3]; steviol 0.01 μg/mL) was 102.8%. For the same compound, the “Relative viable cell count (%)” value (PC12 cells (clone HS) [3]; steviol 0.1 μg/mL) was 97.0%, the “Relative viable cell count (%)” value (PC12 cells (clone HS) [3]; steviol 1 μg/mL) was 95.3% and the “Relative viable cell count (%)” value (PC12 cells (clone HS) [3]; steviol 10 μg/mL) was 99.6%. The “Relative viable cell count (%)” value (PC12 cells (clone HS) [3]; steviol 100 μg/mL) was 96.9%, the “adverse effect of endoplasmic reticulum stress on cells (in words)” value [4] was “suppressed an adverse effect of endoplasmic reticulum stress on cells in a concentration-dependent manner” and the “neurite elongation (in words)” value (PC12 cells (clone HS) [5]; PC12 cells, varying concentrations of steviol) was “promoted neurite elongation in a concentration-dependent manner”. For the same compound, the “Relative neurite length (%)” value (PC12 cells (clone HS) [5]; steviol 12.5 μg/mL) was 133.3%, the “Relative neurite length (%)” value (PC12 cells (clone HS) [5]; steviol 25 μg/mL) was 180.9% and the “Relative neurite length (%)” value (PC12 cells (clone HS) [5]; steviol 50 μg/mL) was 235.2%. For the same compound, the “Relative neurite length (%)” value (PC12 cells (clone HS) [5]; steviol 100 μg/mL) was 307.7%, the “Relative neurite length (%)” value (PC12 cells (clone HS) [5]; steviol 200 μg/mL) was 308.6% and the “Expression level of CHOP in adipocytes (relative to GAPDH, untreated=1)” value (CHOP; steviol 6.25 μg/mL) was 3.49. For the same compound, the “Expression level of CHOP in adipocytes (relative to GAPDH, untreated=1)” value (CHOP; steviol 12.5 μg/mL) was 3.23, the “Expression level of CHOP in adipocytes (relative to GAPDH, untreated=1)” value (CHOP; steviol 25 μg/mL) was 3.15 and the “Expression level of CHOP in adipocytes (relative to GAPDH, untreated=1)” value (CHOP; steviol 50 μg/mL) was 3.17. The “Expression level of GRP78 in neuronal cells (relative to GAPDH, untreated=1)” value (GRP78 [6]; steviol 6.25 μg/mL) was 23.31, the “Expression level of GRP78 in neuronal cells (relative to GAPDH, untreated=1)” value (GRP78 [6]; steviol 12.5 μg/mL) was 23.00 and the “Expression level of GRP78 in neuronal cells (relative to GAPDH, untreated=1)” value (GRP78 [6]; steviol 25 μg/mL) was 21.84. The “Expression level of GRP78 in neuronal cells (relative to GAPDH, untreated=1)” value (GRP78 [6]; steviol 50 μg/mL) was 20.15, the “Expression level of GRP78 in adipocytes (relative to GAPDH, untreated=1)” value (GRP78 [7]; steviol 6.25 μg/mL) was 4.46 and the “Expression level of GRP78 in adipocytes (relative to GAPDH, untreated=1)” value (GRP78 [7]; steviol 12.5 μg/mL) was 4.18. For the same compound, the “Expression level of GRP78 in adipocytes (relative to GAPDH, untreated=1)” value (GRP78 [7]; steviol 25 μg/mL) was 4.06 and the “Expression level of GRP78 in adipocytes (relative to GAPDH, untreated=1)” value (GRP78 [7]; steviol 50 μg/mL) was 3.54.
